Data on 14 compounds can be found in US5246989A, “Photochromic compound, composition and use thereof” (priority 1990, dated 1993).

The series is described as follows: Photochromic characteristics of cast polymethyl methacrylate film (coloration under mercury lamp, fading). Type of series: physicochemical. The settings on record: PMMA film, 1.0×10^-4 mol/g, 0.1 mm, 35° C.; for t1/2 (half-value period of absorbance after irradiation): after 60 seconds' irradiation; for λ max (maximum absorption wavelength of the colored film) / ε (60 seconds)-ε (0 second): mercury lamp 60 seconds; for ε (60 seconds)-ε (0 second): absorbance at λmax.

Description: The compound synthesized in Example 1, which was represented by the following formula: [drawing 286] was dissolved and dispersed in polymethyl methacrylate with the aid of benzene, and a cast film was prepared on a slide glass sheet (11.2 cm×3.7 cm) so that the concentration of the compound in the film was 1.0×10^-4 mol/g and the thickness of the film was 0.1 mm. The photochromic film was irradiated with rays of a mercury lamp (SHL-100 supplied by Toshiba) located 10 cm apart from the film at 35° C.+1° C. for 60 seconds to effect coloration in the film, and the photochromic characteristics were examined with respect to items described below.
Maximum absorption wavelength (λmax):
The maximum absorption wavelength λmax of the colored film was determined by using a spectrophotometer (220 A supplied by Hitachi).
After 60 seconds' irradiation under the above-mentioned conditions, the absorbance at the maximum absorption wavelength was measured.
The absorbance at the maximum absorption wavelength of the unirradiated film was measured. Half-value period t^1/2 :
After 60 seconds' irradiation, the time required for reduction of the absorbance of the film to 1/2 of [ε(60 seconds)-ε(0 second)] was measured.

With `CN1c2ccccc2C2(CC3CCC2C3)C12C=Nc1ccc3cccnc3c1O2` (stereo not drawn) [Compound 2], the t1/2 (half-value period of absorbance after irradiation) was 18 s, the “λ max (maximum absorption wavelength of the colored film)” value (shortened to “λ max”) worked out at 603 and the “ε (60 seconds)-ε (0 second)” value is on record as 1.4.

For the compound `CN(C)c1cc2c(c3ccccc13)OC1(C=N2)N(C)c2ccccc2C12CC1CCC2C1` (stereo not drawn) [Compound 3], the t1/2 (half-value period of absorbance after irradiation) came out at 18 s, the “λ max” value was determined as 603 and the “ε (60 seconds)-ε (0 second)” value stood at 1.3.

Regarding `CCCN1c2ccc(C(F)(F)F)cc2C2(C3CC4CC(C3)CC2C4)C12C=Nc1ccc3ccccc3c1O2` (stereo not drawn) [Compound 4], the t1/2 (half-value period of absorbance after irradiation) amounted to 18 s, the “λ max” value is 605 and the “ε (60 seconds)-ε (0 second)” value came out at 1.4.

For `CCC1(CC)c2cc(O)cnc2N(C)C12C=Nc1ccc3ncccc3c1O2` (stereo not drawn) [Compound 5], the t1/2 (half-value period of absorbance after irradiation) was determined as 16 s, the “λ max” value is 598 and the “ε (60 seconds)-ε (0 second)” value came out at 1.7.

For the compound `N#Cc1cnc2ccc3c(c2c1)OC1(C=N3)N(CCc2ccccc2)c2ccccc2C12CCCCC2` (stereo not drawn) [Compound 7], the t1/2 (half-value period of absorbance after irradiation) stood at 18 s, the “λ max” value is on record as 601 and the “ε (60 seconds)-ε (0 second)” value worked out at 1.8.

With `CN1c2cc3occc3cc2C2(CC3CCC2C3)C12C=Nc1ccc3ccccc3c1O2` (stereo not drawn) [Compound 8], the t1/2 (half-value period of absorbance after irradiation) was 18 s, the “λ max” value is recorded as 603 and the “ε (60 seconds)-ε (0 second)” value turned out to be 1.4.

`CN1c2ccc(Cl)cc2C2(C3CC4CC(C3)CC2C4)C12C=Nc1cc(N3CCCCC3)c3ncccc3c1O2` (stereo not drawn) [Compound 9]: the t1/2 (half-value period of absorbance after irradiation) came to 17 s, the “λ max” value is listed as 605 and the “ε (60 seconds)-ε (0 second)” value was found to be 1.2.

With `COC(=O)CN1c2ccc(N(C)C)cc2C2(CCCCC2)C12C=Nc1cc(Br)c3ccccc3c1O2` (stereo not drawn) [Compound 11], the t1/2 (half-value period of absorbance after irradiation) was 17 s, the “λ max” value is 607 and the “ε (60 seconds)-ε (0 second)” value came out at 1.3.

Regarding `COC(=O)CCCCN1c2cc3[nH]ccc3cc2C2(CC3CCC2C3)C12C=Nc1cc(-c3ccccc3)c3ncccc3c1O2` (stereo not drawn) [Compound 13], the t1/2 (half-value period of absorbance after irradiation) was found to be 18 s, the “λ max” value is reported as 607 and the “ε (60 seconds)-ε (0 second)” value came to 1.4.

Turning to `COC(=O)CN1c2cc3ccc([N+](=O)[O-])cc3cc2C2(CC3CCC2C3)C12C=Nc1c(C(F)(F)F)cc3ncccc3c1O2` (stereo not drawn) [Compound 14], the t1/2 (half-value period of absorbance after irradiation) came out at 16 s, the “λ max” value is given as 606 and the “ε (60 seconds)-ε (0 second)” value was determined as 1.4.

`CN1c2cc3ncc(-c4ccsc4)cc3cc2C2(C3CC4CC(C3)CC2C4)C12C=Nc1ccc3ccccc3c1O2` (stereo not drawn) [Compound 15]: the t1/2 (half-value period of absorbance after irradiation) came out at 16 s, the “λ max” value was 607 and the “ε (60 seconds)-ε (0 second)” value is on record as 1.3.

For the compound `COc1cc2c(c3ccccc13)OC1(C=N2)N(c2ccccc2)c2ccccc2C12CCCC2` (stereo not drawn) [Compound 16], the t1/2 (half-value period of absorbance after irradiation) came to 17 s, the “λ max” value stood at 606 and the “ε (60 seconds)-ε (0 second)” value is listed as 1.2.

On to `N#CCN1c2[nH]ccc2C2(CCCCCC2)C12C=Nc1cc(C#N)c3ccccc3c1O2` (stereo not drawn) [Compound 17], for which the t1/2 (half-value period of absorbance after irradiation) stood at 18 s, the “λ max” value is listed as 606 and the “ε (60 seconds)-ε (0 second)” value was found to be 1.4.

For `COc1ccc2c(c1)C1(CCCCC1)C1(C=Nc3ccc4cc5[nH]ccc5cc4c3O1)N2C` (stereo not drawn) [Compound 19], the t1/2 (half-value period of absorbance after irradiation) was 17 s, the “λ max” value worked out at 607 and the “ε (60 seconds)-ε (0 second)” value was determined as 1.2.
